Data as given in ChEMBL document CHEMBL1143311, “Structure-activity relationship and studies on the molecular mechanism of leishmanicidal N,C-coupled arylisoquinolinium salts” (J Med Chem, 2009).
One block for each molecule: values may come before it. The source made the active and inactive calls. No cut-off for these calls is given here.

How the values were obtained:
[1] = Antiproliferative activity against mouse J774.1 cells after 48 hrs by alamar blue assay; format: cell-based
Leishmania major [2] = experiment: Antileishmanial activity against Leishmania major MHOM/IL/81/FE/BNI promastigotes by alamar blue assay; format: functional, organism-based
Macrophage [3] = experiment: Increase in nitric oxide production in LPS-stimulated BALB/c mouse peritoneal macrophages infected with Leishmania major MHOM/IL/81/FE/BNI promastigotes at 3 uM after 48 hrs by […]; format: functional, cell-based
Macrophage [4] = experiment: Reduction of TNFalpha production in IFN-gamma-stimulated BALB/c mouse peritoneal macrophages infected with Leishmania major MHOM/IL/81/FE/BNI promastigotes at 3 uM after 24 hrs by sandwich ELISA; format: functional, cell-based
Albumin = Albumin (Bos taurus, UniProt P02769); experiment: Binding affinity to bovine serum albumin by ultrafiltration method; format: ADME; details: cattle, bovine serum albumin; read-out: PPB (converted)
Albumin, sequence (P02769 whole entry): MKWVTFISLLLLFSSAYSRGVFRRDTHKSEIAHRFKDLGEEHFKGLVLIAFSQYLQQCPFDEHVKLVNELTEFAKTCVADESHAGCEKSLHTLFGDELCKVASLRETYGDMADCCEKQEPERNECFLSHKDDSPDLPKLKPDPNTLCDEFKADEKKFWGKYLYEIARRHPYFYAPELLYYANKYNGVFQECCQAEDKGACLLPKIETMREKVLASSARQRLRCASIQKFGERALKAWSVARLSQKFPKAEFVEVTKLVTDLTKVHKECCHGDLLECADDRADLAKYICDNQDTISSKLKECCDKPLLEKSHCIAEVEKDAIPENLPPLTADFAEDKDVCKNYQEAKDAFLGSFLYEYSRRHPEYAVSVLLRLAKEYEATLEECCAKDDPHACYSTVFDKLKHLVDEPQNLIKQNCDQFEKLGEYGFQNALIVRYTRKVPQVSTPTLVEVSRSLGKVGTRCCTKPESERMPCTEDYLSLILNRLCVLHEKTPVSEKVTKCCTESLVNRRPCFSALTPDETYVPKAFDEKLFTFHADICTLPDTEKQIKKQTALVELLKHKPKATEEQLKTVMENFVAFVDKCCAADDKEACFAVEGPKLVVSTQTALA

Macrophage [5] = experiment: Decrease in IL10 secretion in IFN-gamma-stimulated BALB/c mouse peritoneal macrophages infected with Leishmania major MHOM/IL/81/FE/BNI promastigotes at 3 uM after 24 hrs by sandwich ELISA; format: functional, cell-based
Macrophage [6] = experiment: Reduction of IL6 production in IFN-gamma-stimulated BALB/c mouse peritoneal macrophages infected with Leishmania major MHOM/IL/81/FE/BNI promastigotes at 3 uM after 24 hrs by sandwich ELISA; format: functional, cell-based
[7] = Selectivity index, ratio of IC50 for mouse J774.1 cells to IC50 for Leishmania major MHOM/IL/81/FE/BNI promastigotes; format: toxicity; details: for selectivity ratio: J774.1 cells, read-out: Ratio IC50
Cytochrome P450 2C19 = Cytochrome P450 2C19 (Homo sapiens, UniProt P33261); experiment: Inhibition of human CYP2C19 at 100 uM by LC/ESI-MS analysis; format: ADME
Cytochrome P450 2C19, sequence (P33261 whole entry): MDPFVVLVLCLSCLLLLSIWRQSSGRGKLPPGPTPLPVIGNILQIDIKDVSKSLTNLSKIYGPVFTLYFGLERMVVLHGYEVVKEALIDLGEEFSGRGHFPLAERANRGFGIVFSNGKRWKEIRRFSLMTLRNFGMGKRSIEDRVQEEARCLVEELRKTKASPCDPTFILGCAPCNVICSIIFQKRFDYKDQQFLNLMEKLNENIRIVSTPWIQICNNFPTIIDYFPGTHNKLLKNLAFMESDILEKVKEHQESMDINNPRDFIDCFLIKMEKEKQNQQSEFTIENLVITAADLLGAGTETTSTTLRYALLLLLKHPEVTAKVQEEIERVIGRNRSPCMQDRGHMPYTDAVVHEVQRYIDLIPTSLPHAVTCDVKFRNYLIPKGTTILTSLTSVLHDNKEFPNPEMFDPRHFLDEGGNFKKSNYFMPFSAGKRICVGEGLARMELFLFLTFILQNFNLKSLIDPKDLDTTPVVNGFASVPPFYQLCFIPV

Cytochrome P450 2C9 = Cytochrome P450 2C9 (Homo sapiens, UniProt P11712); experiment: Inhibition of human CYP2C9 at 100 uM by LC/ESI-MS analysis; format: ADME
Cytochrome P450 2C9, sequence (P11712 whole entry): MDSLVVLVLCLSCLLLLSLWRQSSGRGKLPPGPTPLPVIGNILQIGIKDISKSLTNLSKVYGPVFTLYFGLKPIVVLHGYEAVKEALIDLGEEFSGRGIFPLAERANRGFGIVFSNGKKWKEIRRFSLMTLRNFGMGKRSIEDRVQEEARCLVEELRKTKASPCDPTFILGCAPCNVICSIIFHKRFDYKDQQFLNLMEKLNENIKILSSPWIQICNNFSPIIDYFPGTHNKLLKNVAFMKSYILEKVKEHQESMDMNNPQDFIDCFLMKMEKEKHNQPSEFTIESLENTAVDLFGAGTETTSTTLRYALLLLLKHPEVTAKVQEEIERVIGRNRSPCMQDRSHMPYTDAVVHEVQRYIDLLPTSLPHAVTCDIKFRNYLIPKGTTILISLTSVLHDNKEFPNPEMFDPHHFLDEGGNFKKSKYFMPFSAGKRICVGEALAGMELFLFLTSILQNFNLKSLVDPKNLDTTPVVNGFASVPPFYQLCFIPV

Macrophage [8] = experiment: Reduction of IL6 production in LPS-stimulated BALB/c mouse peritoneal macrophages infected with Leishmania major MHOM/IL/81/FE/BNI promastigotes at 3 uM after 24 hrs by sandwich ELISA; format: functional, cell-based
[9] = Cytotoxicity against BALB/c mouse peritoneal macrophages after 48 hrs by alamar blue assay; format: cell-based; details: Macrophage
[10] = Cytotoxicity against BALB/c mouse DC after 48 hrs by alamar blue assay
Macrophage [11] = experiment: Decrease in IL10 secretion in LPS-stimulated BALB/c mouse peritoneal macrophages infected with Leishmania major MHOM/IL/81/FE/BNI promastigotes at 3 uM after 24 hrs by sandwich ELISA; format: functional, cell-based
Cytochrome P450 3A4 = Cytochrome P450 3A4 (Homo sapiens, UniProt P08684); experiment: Inhibition of human CYP3A4 at 100 uM by LC/ESI-MS analysis; format: ADME
Cytochrome P450 3A4, sequence (P08684 whole entry): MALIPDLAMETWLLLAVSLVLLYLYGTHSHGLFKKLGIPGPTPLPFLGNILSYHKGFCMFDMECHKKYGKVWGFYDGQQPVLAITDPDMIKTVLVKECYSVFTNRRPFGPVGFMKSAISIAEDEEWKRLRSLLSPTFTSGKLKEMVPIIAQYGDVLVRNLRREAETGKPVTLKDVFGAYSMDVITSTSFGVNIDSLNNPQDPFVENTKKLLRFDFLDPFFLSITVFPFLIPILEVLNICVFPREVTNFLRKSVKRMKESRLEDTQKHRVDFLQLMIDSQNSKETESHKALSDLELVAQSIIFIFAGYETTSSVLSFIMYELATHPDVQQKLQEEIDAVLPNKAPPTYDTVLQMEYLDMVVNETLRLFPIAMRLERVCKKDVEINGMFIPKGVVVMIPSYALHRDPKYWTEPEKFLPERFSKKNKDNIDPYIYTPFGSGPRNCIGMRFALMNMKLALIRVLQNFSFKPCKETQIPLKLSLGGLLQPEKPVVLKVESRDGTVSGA

Cytochrome P450 2D6 [12] = target: T1, Cytochrome P450 2D6 (Homo sapiens, UniProt P10635); experiment: Inhibition of human CYP2D6 at 1 to 100 uM by LC/ESI-MS analysis; format: ADME
T1 sequence (P10635 whole entry): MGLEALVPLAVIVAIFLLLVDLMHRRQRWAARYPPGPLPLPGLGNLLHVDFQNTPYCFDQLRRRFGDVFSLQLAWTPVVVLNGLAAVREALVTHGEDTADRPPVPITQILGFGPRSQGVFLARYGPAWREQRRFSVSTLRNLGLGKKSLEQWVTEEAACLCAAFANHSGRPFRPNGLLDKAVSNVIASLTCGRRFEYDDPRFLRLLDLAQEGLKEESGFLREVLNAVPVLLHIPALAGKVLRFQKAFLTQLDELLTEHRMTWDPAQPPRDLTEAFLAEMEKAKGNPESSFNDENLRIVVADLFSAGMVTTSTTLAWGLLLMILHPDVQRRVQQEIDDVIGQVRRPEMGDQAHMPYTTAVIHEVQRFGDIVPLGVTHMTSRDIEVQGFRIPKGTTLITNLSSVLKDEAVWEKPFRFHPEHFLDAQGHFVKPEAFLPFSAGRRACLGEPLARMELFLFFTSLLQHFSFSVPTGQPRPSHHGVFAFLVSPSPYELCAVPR

[13] = Cytotoxicity against mouse NIH/3T3 after 48 hrs by alamar blue assay; format: cell-based; details: NIH3T3, 48 h
Leishmania major [14] = experiment: Antileishmanial activity against Leishmania major MHOM/IL/81/FE/BNI promastigotes infected in BALB/c mouse peritoneal macrophages assessed as decrease in infection rate after 48 hrs by fluorescence microscopy; format: functional, organism-based
[15] = Ratio of IC50 for BALB/c mouse peritoneal macrophages to EC50 for Leishmania major MHOM/IL/81/FE/BNI promastigotes
Leishmania major [16] = experiment: Antileishmanial activity against Leishmania major MHOM/IL/81/FE/BNI promastigotes infected in BALB/c mouse peritoneal macrophages assessed as decrease in infection rate after 48 hrs by fluorescence microscopy in presence of interferon-gamma; format: functional, organism-based
Cytochrome P450 2D6 [17] = target: T1, Cytochrome P450 2D6; experiment: Inhibition of human CYP2D6 expressed in baculovirus-infected insect cell system; format: ADME
Macrophage [18] = experiment: Reduction of TNFalpha production in LPS-stimulated BALB/c mouse peritoneal macrophages infected with Leishmania major MHOM/IL/81/FE/BNI promastigotes at 3 uM after 24 hrs by sandwich ELISA; format: functional, cell-based
Cytochrome P450 2D6 [19] = target: T1, Cytochrome P450 2D6; experiment: Inhibition of human CYP2D6 by Lineweaver-Burke plot; format: ADME

SMILES: COc1cc2c(c(OC)c1)C(C)N(c1ccc(C(C)C)cc1)C(C)C2 (stereo not drawn)
IC50 ([1]; Mus musculus, J774.1, 48 h): 74.7 µM
IC50 (Leishmania major [2]; Leishmania major): 49.9 µM

fraction unbound (Albumin): 0.538
Activity (Cytochrome P450 2C19): Active
Activity (Cytochrome P450 2C9): Active
Activity (Cytochrome P450 3A4): Active
Activity (Cytochrome P450 2D6 [12]): Not Active
EC50 (Leishmania major [14]): 0.241 µM
SMILES: COc1cc(OC)c2c(C)[n+](-c3c(C)cccc3C)c(C)cc2c1.F[B-](F)(F)F
Activity (Macrophage [3]): inactive
Activity (Macrophage [4]): Active
IC50 ([1]; Mus musculus, J774.1, 48 h): 27.3 µM
Activity (Macrophage [5]): Active
Activity (Macrophage [6]): Active
selectivity ratio [7]: 7.82
IC50 (Leishmania major [2]; Leishmania major): 3.49 µM
Activity (Macrophage [8]): Active
IC50 [9]: 9.67 µM
IC50 [10]: 8.76 µM
Activity (Macrophage [11]): Active
IC50 [13]: 37.6 µM
Ratio IC50/EC50 [15]: 40
Activity (Leishmania major [16]): Active

SMILES: COc1cc(OC)c2c(C)[n+](-c3ccc(Br)cc3)c(C)cc2c1
IC50 ([1]; Mus musculus, J774.1, 48 h): 2.97 µM
selectivity ratio [7]: < 1
IC50 (Leishmania major [2]; Leishmania major): 19.7 µM

SMILES: COc1cc2c(c(OC)c1)C(C)N(c1ccc(OC)c3c(OC)cc(C)cc13)[C@@H](C)C2 (mixture of isomers)
IC50 ([1]; Mus musculus, J774.1, 48 h): > 100 µM
IC50 (Leishmania major [2]; Leishmania major): 64.8 µM

SMILES: COc1cc(OC)c2c(C)[n+](-c3ccc(C(C)(C)C)cc3)c(C)cc2c1
IC50 ([1]; Mus musculus, J774.1, 48 h): 4.28 µM
selectivity ratio [7]: 1.6
IC50 (Leishmania major [2]; Leishmania major): 2.67 µM

SMILES: COc1cc(OC)c2c(C)[n+](-c3ccc4cc5ccccc5cc4c3)c(C)cc2c1
IC50 ([1]; Mus musculus, J774.1, 48 h): 0.23 µM
selectivity ratio [7]: < 1
IC50 (Leishmania major [2]; Leishmania major): 0.67 µM

SMILES: COc1cc2c(c(OC)c1)C(C)N(c1ccc(OC)c3c(OC)cc(C)cc13)[C@H](C)C2 (mixture of isomers)
IC50 ([1]; Mus musculus, J774.1, 48 h): > 100 µM
IC50 (Leishmania major [2]; Leishmania major): 66.7 µM

SMILES: COc1cc2c(c(OC)c1)C(C)N(c1cccc3ccccc13)C(C)C2 (stereo not drawn)
IC50 ([1]; Mus musculus, J774.1, 48 h): > 100 µM
IC50 (Leishmania major [2]; Leishmania major): 65.6 µM

SMILES: COc1cc(OC)c2c(C)[n+](-c3cccc4ccccc34)c(C)cc2c1
IC50 ([1]; Mus musculus, J774.1, 48 h): 4.29 µM
selectivity ratio [7]: 2.63
IC50 (Leishmania major [2]; Leishmania major): 1.63 µM

Activity (Cytochrome P450 2C19): Active
Activity (Cytochrome P450 2C9): Active
SMILES: C=C[C@H]1C[N@@]2CC[C@H]1C[C@@H]2[C@@H](O)c1ccnc2ccc(OC)cc12 [QUINIDINE]

SMILES: COc1cc(OC)c2c(C)[n+](-c3c(C)cc(C)cc3C)c(C)cc2c1
IC50 ([1]; Mus musculus, J774.1, 48 h): 4.2 µM
selectivity ratio [7]: 2.82
IC50 (Leishmania major [2]; Leishmania major): 1.49 µM

SMILES: COc1cc(OC)c2c(C)[n+](-c3ccc(OC(C)=O)cc3)c(C)cc2c1
IC50 ([1]; Mus musculus, J774.1, 48 h): > 100 µM
IC50 (Leishmania major [2]; Leishmania major): > 100 µM

SMILES: COc1cc(OC)c2c(C)[n+](-c3cccc4cc5ccccc5cc34)c(C)cc2c1.F[B-](F)(F)F
IC50 ([1]; j774.1): 2.95 µM
Ratio IC50 [7]: < 1
IC50 (Leishmania major [2]): 0.72 µM

fraction unbound (Albumin): 0.416
SMILES: COc1cc(OC)c2c(C)[n+](-c3ccc(C(C)C)cc3C(C)C)c(C)cc2c1
IC50 ([1]; Mus musculus, J774.1, 48 h): 2.25 µM
selectivity ratio [7]: 4.17
IC50 (Leishmania major [2]; Leishmania major): 0.54 µM

fraction unbound (Albumin): 0.441
IC50 (Cytochrome P450 2D6 [17]): 0.0561 µM
Activity (Cytochrome P450 2C19): Active
Activity (Cytochrome P450 2C9): Active
Activity (Cytochrome P450 3A4): Active
Activity (Cytochrome P450 2D6 [12]): Active
EC50 (Leishmania major [14]): 0.092 µM
Ki (Cytochrome P450 2D6 [19]): 0.0281 µM
SMILES: COc1cc(OC)c2c(C)[n+](-c3ccc(C)cc3)c(C)cc2c1.F[B-](F)(F)F
Activity (Macrophage [3]): inactive
Activity (Macrophage [4]): Active
IC50 ([1]; Mus musculus, J774.1, 48 h): 14.6 µM
Activity (Macrophage [5]): inactive
Activity (Macrophage [6]): Active
selectivity ratio [7]: 5.55
IC50 (Leishmania major [2]; Leishmania major): 2.64 µM
Activity (Macrophage [8]): Active
Activity (Macrophage [18]): Active
IC50 [9]: 12.8 µM
IC50 [10]: 24 µM
Activity (Macrophage [11]): inactive
IC50 [13]: 49.8 µM
Ratio IC50/EC50 [15]: 138
Activity (Leishmania major [16]): Active

fraction unbound (Albumin): 0.671
SMILES: COc1cc(OC)c2c(C)[n+](-c3ccc4scnc4c3)c(C)cc2c1
IC50 ([1]; Mus musculus, J774.1, 48 h): 63.2 µM
IC50 (Leishmania major [2]; Leishmania major): > 100 µM

SMILES: CCCCc1ccc(-[n+]2c(C)cc3cc(OC)cc(OC)c3c2C)cc1
IC50 ([1]; Mus musculus, J774.1, 48 h): 4.47 µM
selectivity ratio [7]: < 1
IC50 (Leishmania major [2]; Leishmania major): 2.69 µM
